According to patent publication US20260263459A1, “PHTHALAZINONE GSPT1 PROTEIN DEGRADING AGENT AND USE THEREOF” (CHINA PHARMACEUTICAL UNIVERSITY, priority 2023, published 2026):

Legend:
[1] = biological target: T1, GSPT1 protein (Homo sapiens, UniProt P15170+Q96SW2); experiment: Degradation of GSPT1 in KG-1 cells (Western blot); format: cell-based; settings: compound concentration 200 nM, 4 h incubation
T1 construct: Whole cell lysates were prepared; endogenous in cells; host or cells: KG-1 cells
Description: KG-1 cells were grown in an IMDM culture medium (containing 20% FBS). After centrifugation and counting, the cell concentration was adjusted. The cells were plated onto 6-well plates at 10^6 cells/well, with 1350 μL per well. 150 μL of DMSO and the test compounds of the present disclosure (compound concentration: 200 nM) were added. The plates were incubated in an incubator at 37° C. with 5% CO2 for 4 h. The cells were centrifuged, and the culture medium was discarded. PBS was added to wash the cells and then discarded. Whole cell lysates were prepared using a protease inhibitor cocktail (100×, Fude Biological), a protein phosphatase inhibitor cocktail (100×, Fude Biological), Super Nuclease (Beyotime), and a high-intensity RIPA lysis buffer (Thermo Fisher) and placed on ice for 30 min. After centrifugation, the cell debris precipitates were discarded, and the whole cell lysate supernatants were collected and transferred to new centrifuge tubes. After a BCA protein assay, samples were prepared using a 5× loading buffer (Thermo Fisher). The samples were subjected to protein electrophoresis separation in a 4-20% precast gel (SDS-PAGE gel), transferred to a PVDF membrane, blocked with 5% NFDM/TBST at room temperature for 1 h, incubated overnight with primary antibodies at 4° C., and incubated with a secondary antibody at room temperature for 2 h the next day. Signals were detected using a MINICHEMITM imaging system.
• Anti-GSPT1: Abcam ab234433 • Anti-beta actin: Fude Biological FD0060
• Anti-rabbit peroxidase-linked secondary antibody: Fude Biological FDG007
The degradation effects of the compounds on GSPT1 protein are shown in Table 1, where A represents a GSPT1 protein degradation percentage of no less than 70%, B represents a degradation percentage of less than 70% but no less than 30%, and C represents a degradation percentage of less than 30%.

[2] = test system: KG-1 cells; experiment: Antiproliferative activity against KG-1 cells (CCK8); format: cell-based; settings: Homo sapiens, 72 h incubation, CCK8 method
Description: KG-1 cells in the logarithmic growth phase were diluted in a culture medium (RPMI+10% FBS) and plated onto 96-well plates at 5000 cells/well, and the plates were incubated in an incubator at 37° C. with 5% CO2 for 24 h. 10 mM stock solutions of the test compounds of the present disclosure in DMSO were prepared and diluted with the culture medium to set 9 concentration gradients. 3 replicate wells were set for each concentration. After compound addition, the plates were incubated in an incubator at 37° C. with 5% CO2 for 72 h. The cell proliferation was assessed using the CCK8 method. The cell growth inhibition IC50 values of the compounds were determined using an enzyme labeling method. The IC50 values were calculated using GraphPad Prism 7 software.
The antiproliferative activity of the compounds against KG-1 cells is shown in Table 2, where A represents IC50≤30 nM, B represents 30<IC50≤300 nM, and C represents IC50>300 nM.

T1 sequence (P15170 whole entry): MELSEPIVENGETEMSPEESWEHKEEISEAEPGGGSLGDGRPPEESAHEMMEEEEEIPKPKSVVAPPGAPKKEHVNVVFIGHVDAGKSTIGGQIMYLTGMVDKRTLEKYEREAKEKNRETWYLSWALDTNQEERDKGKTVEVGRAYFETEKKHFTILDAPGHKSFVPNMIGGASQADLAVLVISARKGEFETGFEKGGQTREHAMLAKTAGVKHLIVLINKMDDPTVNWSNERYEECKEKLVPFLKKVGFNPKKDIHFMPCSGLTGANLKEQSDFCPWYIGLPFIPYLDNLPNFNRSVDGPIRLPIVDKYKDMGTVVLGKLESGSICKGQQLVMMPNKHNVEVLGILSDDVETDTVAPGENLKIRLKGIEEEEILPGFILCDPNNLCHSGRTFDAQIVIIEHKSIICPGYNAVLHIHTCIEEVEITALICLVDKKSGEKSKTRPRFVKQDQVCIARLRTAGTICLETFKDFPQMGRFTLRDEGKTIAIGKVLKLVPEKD
T1 sequence (Q96SW2 whole entry): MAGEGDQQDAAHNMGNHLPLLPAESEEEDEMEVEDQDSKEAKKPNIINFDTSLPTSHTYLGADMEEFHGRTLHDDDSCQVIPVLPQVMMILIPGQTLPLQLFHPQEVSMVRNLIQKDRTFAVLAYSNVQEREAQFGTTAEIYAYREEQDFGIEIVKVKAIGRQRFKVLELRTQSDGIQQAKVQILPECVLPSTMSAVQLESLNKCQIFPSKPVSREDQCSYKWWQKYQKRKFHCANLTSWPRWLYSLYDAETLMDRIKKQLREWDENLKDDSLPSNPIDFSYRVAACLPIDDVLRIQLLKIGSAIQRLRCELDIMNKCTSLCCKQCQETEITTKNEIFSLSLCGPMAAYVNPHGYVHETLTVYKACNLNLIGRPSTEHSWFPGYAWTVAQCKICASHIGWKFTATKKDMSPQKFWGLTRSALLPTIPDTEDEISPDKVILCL
T1 sequence (Q16531 whole entry partner): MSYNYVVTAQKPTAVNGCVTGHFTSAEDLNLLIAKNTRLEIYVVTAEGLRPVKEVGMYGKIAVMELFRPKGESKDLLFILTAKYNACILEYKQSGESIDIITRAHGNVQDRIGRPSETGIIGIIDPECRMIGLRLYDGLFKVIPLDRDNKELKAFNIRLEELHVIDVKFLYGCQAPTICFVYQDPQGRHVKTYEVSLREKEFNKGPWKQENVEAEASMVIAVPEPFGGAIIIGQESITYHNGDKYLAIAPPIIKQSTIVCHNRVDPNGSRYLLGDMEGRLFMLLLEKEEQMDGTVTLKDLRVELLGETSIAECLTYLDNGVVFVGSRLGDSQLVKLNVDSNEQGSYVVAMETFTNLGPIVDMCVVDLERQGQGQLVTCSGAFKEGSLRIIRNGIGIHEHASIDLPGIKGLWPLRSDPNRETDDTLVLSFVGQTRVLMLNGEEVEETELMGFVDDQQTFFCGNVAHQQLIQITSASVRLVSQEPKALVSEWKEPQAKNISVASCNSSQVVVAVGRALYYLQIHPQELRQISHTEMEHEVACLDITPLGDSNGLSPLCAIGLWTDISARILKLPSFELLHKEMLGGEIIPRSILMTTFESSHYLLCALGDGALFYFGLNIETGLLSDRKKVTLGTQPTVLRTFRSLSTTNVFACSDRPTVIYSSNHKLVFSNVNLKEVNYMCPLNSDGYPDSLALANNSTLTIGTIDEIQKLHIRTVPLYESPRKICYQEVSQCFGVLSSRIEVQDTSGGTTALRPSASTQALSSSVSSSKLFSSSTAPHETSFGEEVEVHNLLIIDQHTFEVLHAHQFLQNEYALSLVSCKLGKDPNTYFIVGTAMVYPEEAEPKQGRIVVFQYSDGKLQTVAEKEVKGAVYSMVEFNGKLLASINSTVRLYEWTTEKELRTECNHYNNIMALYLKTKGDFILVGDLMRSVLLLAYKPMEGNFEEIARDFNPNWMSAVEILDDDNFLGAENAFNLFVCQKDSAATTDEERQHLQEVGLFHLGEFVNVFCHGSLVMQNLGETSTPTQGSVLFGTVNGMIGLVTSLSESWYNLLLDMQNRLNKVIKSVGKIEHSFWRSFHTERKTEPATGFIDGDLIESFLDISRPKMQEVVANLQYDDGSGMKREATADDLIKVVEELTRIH

| inhibition at 0.2 µM [1] [%] | SMILES | IC50 [2] [nM] |
| --- | --- | --- |
| < 30 | O=C1CCC(n2ncc3cc(NC(=O)C4=Cc5ccccc5OC4)ccc3c2=O)C(=O)N1 (centres unmarked) [Compound T-25, N-(2-(2,6-Dioxopiperidin-3-yl)-1-oxo-1,2-dihydrophthalazin-6-yl)-2H-chromene-3-carboxamide] | 30 to 300 |
| < 30 | O=C1CCC(n2ncc3cc(NC(=O)C4=Cc5cc(F)ccc5OC4)ccc3c2=O)C(=O)N1 (centres unmarked) [Compound T-26, N-(2-(2,6-Dioxopiperidin-3-yl)-1-oxo-1,2-dihydrophthalazin-6-yl)-6-fluoro-2H-chromene-3-carboxamide] | 30 to 300 |
| < 30 | O=C1CCC(n2ncc3cc(NC(=O)C4=Cc5cc(OC(F)(F)F)ccc5OC4)ccc3c2=O)C(=O)N1 (centres unmarked) [Compound T-27, N-(2-(2,6-Dioxopiperidin-3-yl)-1-oxo-1,2-dihydrophthalazin-6-yl)-6-(trifluoromethoxy)-2H-chromene-3-carboxamide] | 30 to 300 |
| 30 to 70 | O=C1CCC(n2ncc3cc(NC(=O)C4=Cc5cccc(OC(F)(F)F)c5OC4)ccc3c2=O)C(=O)N1 (centres unmarked) [Compound T-28, N-(2-(2,6-Dioxopiperidin-3-yl)-1-oxo-1,2-dihydrophthalazin-6-yl)-8-(trifluoromethoxy)-2H-chromene-3-carboxamide] | 30 to 300 |
